In paper PMC12072147, “Antioxidant and Neuroprotective Properties of Selected Pyrrole-Containing Azomethine Compounds in Neurotoxicity Models In Vitro” (International Journal of Molecular Sciences, 2025):
Blank lines part the entries; values can stand above or below the compound they belong to.

Columns and labels:
[1] = system: isolated rat brain synaptosomes; assay: 6-OHDA-induced neurotoxicity in isolated rat brain synaptosomes; format: cell-based; settings: for preserved GSH levels in synaptosomes / viability at 100 µM: 100 µM compound + 150 µM 6-OHDA; for preserved GSH levels in synaptosomes: compared to the 6-OHDA group; for viability at 100 µM: Rattus norvegicus, compared to 6-OHDA alone, read-out: preserved synaptosomal viability
Procedure: Synaptosomes and mitochondria were isolated by subcellular fractionation using a Percoll gradient, following the method described by Tauplin et al. and Sims et al.. Brain homogenate was prepared and centrifuged at 1000× g for 5 min at 4 °C. The supernatants were collected and centrifuged again at 1000× g for 5 min at 4 °C. The supernatants from both centrifugations were combined and distributed into four tubes. These tubes were then centrifuged at 10,000× g for 20 min at 4 °C three times. The final two centrifugations were performed to purify the synaptosomes and mitochondria.
The isolation process involves using a colloidal silicon solution, specifically Percoll. First, a 90% stock solution of Percoll is prepared. Next, Percoll solutions at concentrations of 16% and 10% are prepared, with 4 mL of each solution placed into six separate test tubes. To the precipitate from the final centrifugation step, 7.5% Percoll (derived from the 90% stock solution) is added. The tubes are then centrifuged at 15,000× g for 20 min at 4 °C. This procedure effectively isolates synaptosomes and mitochondria. After centrifugation, three distinct layers form in the tubes. The bottom layer contains mitochondria, the top layer contains lipids, and the middle layer—located at the 16% to 10% Percoll interface—contains synaptosomes. The corresponding layer from each tube is carefully removed using a glass Pasteur pipette and combined into one. Buffer B with glucose is then added to the mixture, which is centrifuged at 10,000 × g for 20 min at 4 °C, allowing the isolation buffer to be exchanged with the incubation buffer. After centrifugation, the pellet containing the synaptosomes is resuspended in Buffer B with glucose. Synaptosomes and mitochondria were incubated with the test substances at a concentration of 100 µM for 1 h.
This in vitro model mimics the neurodegenerative processes primarily observed in Parkinson’s disease (PD). The metabolism of 6-OHDA produces reactive quinones (p-quinone), which, in turn, generate reactive oxygen species (ROS). These reactive metabolites and ROS cause damage to both pre- and post-synaptic membranes, ultimately leading to neuronal cell damage. In this study, synaptosomes were incubated with 6-OHDA (150 μM) for 1 h to establish the model.
After a 1-h incubation with the substances and toxic agent, synaptosomes were centrifuged in a microcentrifuge at 15,000× g for 1 min. The pellet was gently mixed with Buffer B + glucose, and the supernatant containing 6-OHDA was discarded to prevent oxidation of 3-(4,5-dimethylthiazol-2-yl)-2,5-diphenyltetrazolium bromide, a tetrazole (MTT). The synaptosomes were centrifuged again at 15,000× g for 1 min. After the second wash, Buffer B + glucose was added to the pellet. Then, 60 µL of MTT solution was added to the “washed” synaptosomes. The plates were incubated with the MTT solution at 37 °C for 10 min. After incubation, the samples were centrifuged at 15,000× g for 2 min. The excess liquid was removed, and a DMSO solution was used to dissolve the formed formazan crystals. The amount of formazan was then measured spectrophotometrically at λ = 580 nm.
Following protein precipitation with trichloroacetic acid, the thiol groups in the supernatant were measured using DTNB, which produces a yellow-colored compound that absorbs light at λ = 412 nm. After incubation, synaptosomes were centrifuged at 4000× g for 3 min. The supernatant was removed, and the pellet was collected for GSH determination. The pellet was treated with 5% trichloroacetic acid and left on ice for 10 min. It was then centrifuged at 8000× g for 10 min at 2 °C. The supernatant was collected for GSH determination and frozen at −20 °C. Immediately before measurement, the samples were neutralized with 5N NaOH [50].

[2] = system: isolated rat brain microsomes; assay: In vitro toxicity (prooxidant effect, MDA) on isolated rat brain microsomes; format: biochemical; settings: 100 µM, vs untreated control microsomes
Procedure: (§1) The brain was homogenized in 9 volumes of 0.1 M Tris buffer containing 0.1 mM dithiothreitol, 0.1 mM phenylmethylsulfonyl fluoride, 0.2 mM EDTA, 1.15% KCl, and 20% (v/v) glycerol (pH 7.4). The resulting homogenate was centrifuged twice at 17,000× g for 30 min. The supernatants from both centrifugation steps were combined and centrifuged twice at 100,000× g for 1 h. The pellet was then frozen in 0.1 M Tris buffer.
(§2) After incubating the microsomes with the substances and toxic agent, the reaction was stopped by adding 0.5 mL of 20% trichloroacetic acid, followed by 0.5 mL of 0.67% thiobarbituric acid. The reaction formed a colored complex between the malondialdehyde produced and thiobarbituric acid. The amount of malondialdehyde (MDA) was measured spectrophotometrically at 535 nm, using a molar extinction coefficient of 1.56 × 10^5 M^−1 cm^−1 for the calculation.

SH-SY5Y cells [3] = assay: In vitro cytotoxicity in neuroblastoma cell line SH-SY5Y (MTT); format: cell-based; settings: Homo sapiens, 24 h treatment, 0.1-500 µM, read-out: IC50 (cell viability)
Procedure: (§3) The neuroblastoma cell line SH-SY5Y was acquired from Sigma-Aldrich (ACACC cell lines). They were cultured in Roswell Park Memorial Institute 1640 (RPMI) cell medium supplemented with 10% heat-inactivated fetal bovine serum (FBS) and 2 mM L-glutamine. The cells were maintained at 37 °C in an atmosphere containing 5% CO2 in a humidified incubator.
SH-SY5Y cells were seeded in 96-well plates at a density of 2.5 × 10^4 cells/well. The plates were incubated for 24 h to ensure proper attachment. Cell viability assays were performed after treatment with the test compounds at concentrations of 0.1, 1, 5, 10, 50, 100, 250, and 500 μM, according to the protocol of Mosmann (1984). Each compound was tested in 6 wells. Following the treatment for 24 h, a solution of (3-(4,5-dimethylthiazol-2-yl)-2,5-diphenyltetrazolium bromide) MTT at a concentration of 5 mg/mL was prepared and briefly vortexed. The culture medium was aspirated and replaced with 100 μL of MTT solution in each well. The plates were then incubated for 3 h. After incubation, the formazan crystals were dissolved using 100 μL dimethylsulphoxide (DMSO), and the absorbance was measured at 570 nm (690 nm for the background absorbance) using a multiple reader Synergy 2 (BioTek Instruments, Inc., Highland Park, Winooski, VT, USA).

[4] = system: isolated rat brain microsomes; assay: Non-enzyme (Fe2+/AA) lipid peroxidation in isolated rat brain microsomes; format: biochemical; settings: 100 µM compound co-incubated with Fe2+/AA, compared to the Fe2+/AA group
Procedure: as §1
Non-enzyme-induced lipid peroxidation was induced with 20 μM ferrous sulfate solution and 0.5 mM ascorbic acid solution [54].
as §2

SH-SY5Y cells [5] = assay: H2O2-induced oxidative stress model in neuroblastoma SH-SY5Y cells; format: cell-based, human; settings: H2O2 1 mM 10 min
Procedure: as §3
In the oxidative stress model, SH-SY5Y cells (3.5 × 10^4 cells/well) were exposed to 1 mM H2O2 for 10 min. The cells were pre-treated for 1.5 h with the test compounds (0.1, 1, 5, 10, 20, and 50 µM). Subsequently, a H2O2 solution was added. Cell viability was assessed after 24 h by the MTT-dye reduction assay, as described above.
The results of the experiments performed on isolated brain synaptosomes, mitochondria, and microsomes were statistically processed using the ‘MEDCALC’ program using the non-parametric Mann–Whitney method at significance levels of p < 0.05, p < 0.01, and p < 0.001. Statistical analyses with the SH-SY5Y cell line were conducted on GraphPad Prism software (version 8, GraphPad Software, La Jolla, CA, USA). The significance of the data was assessed using one-way analysis of variance (ANOVA), followed by Dunnet’s test for post hoc multiple comparisons, to evaluate statistical differences. Values of * p ≤ 0.05, ** p ≤ 0.01, and *** p ≤ 0.001 were considered statistically significant. Cytoprotecting data were normalized as a percentage of the H2O2-treated control (defined as 0% viability). Statistical analysis was performed to compare the different groups of compounds. Statistical significance was determined using the Holm–Sidak method, with alpha = 0.05. Each row was analyzed individually, without assuming a consistent SD.

[6] = system: isolated brain mitochondria; assay: t-BuOOH-induced oxidative stress in brain mitochondria; settings: 100 µM compound + t-BuOOH, compared to t-BuOOH alone
[7] = 150 µM applied alone, vs untreated synaptosomes

- decrease of MDA production in microsomes [4]: 35%
Compound: CCOC(=O)c1cc(-c2ccc(Br)cc2)n(C(Cc2c[nH]c3ccccc23)C(=O)N/N=C/c2ccc([N+](=O)[O-])o2)c1C (centres unmarked) [compound 11]
- increase in MDA formation in microsomes [2]: 41%
- IC50 (SH-SY5Y cells [3]): 264 µM
- preserved GSH levels in synaptosomes [1]: 60%
- viability at 100 µM [1]: 69%
- reduction of MDA production in mitochondria [6]: 41%

- decrease of MDA production in microsomes [4]: 40%
Compound: CCOC(=O)c1cc(-c2ccc(Br)cc2)n(C(Cc2c[nH]c3ccccc23)C(=O)N/N=C/c2ccccc2O)c1C (centres unmarked) [compound 12]
- increase in MDA formation in microsomes [2]: 35%
- IC50 (SH-SY5Y cells [3]): > 500 µM
- preserved GSH levels in synaptosomes [1]: 80%
- viability at 100 µM [1]: 82%
- protective effect (neuroprotection) (SH-SY5Y cells [5]; 5 µM pre-treatment 1.5 h): 48%
- protective effect (neuroprotection) (SH-SY5Y cells [5]; 10 µM pre-treatment 1.5 h): 53%
- protective effect (neuroprotection) (SH-SY5Y cells [5]; 20 µM pre-treatment 1.5 h): 50%
- protective effect (neuroprotection) (SH-SY5Y cells [5]; 50 µM pre-treatment 1.5 h): 32%

- decrease of MDA production in microsomes [4]: 37%
Compound: CCOC(=O)c1cc(-c2ccc(Br)cc2)n(C(Cc2c[nH]c3ccccc23)C(=O)N/N=C/c2ccc3ccccc3c2)c1C (centres unmarked) [compound 14]
- increase in MDA formation in microsomes [2]: 39%
- IC50 (SH-SY5Y cells [3]): > 500 µM
- preserved GSH levels in synaptosomes [1]: 70%
- viability at 100 µM [1]: 60%
- protective effect (neuroprotection) (SH-SY5Y cells [5]; 5 µM pre-treatment 1.5 h): 33%
- protective effect (neuroprotection) (SH-SY5Y cells [5]; 10 µM pre-treatment 1.5 h): 51%

- decrease of MDA production in microsomes [4]: 36%
Compound: CCOC(=O)c1cc(-c2ccc(Br)cc2)n(C(Cc2c[nH]c3ccccc23)C(=O)N/N=C/c2c3ccccc3cc3ccccc23)c1C (centres unmarked) [compound 15]
- increase in MDA formation in microsomes [2]: 40%
- IC50 (SH-SY5Y cells [3]): > 500 µM
- preserved GSH levels in synaptosomes [1]: 70%
- viability at 100 µM [1]: 64%

The remaining lines, values behind:

Compound: NCCc1cc(O)c(O)cc1O [6-OHDA, 6-hydroxydopamine, reference compound]
- decrease in synaptosomal viability by toxic agent alone [1, 7]: 55%
- reduction in GSH levels by toxic agent alone [1, 7]: 50%

Compound: CCOC(=O)c1cc(-c2ccc(Br)cc2)n(C(Cc2c[nH]c3ccccc23)C(=O)N/N=C/c2cc(OC)c(O)c(OC)c2)c1C (centres unmarked) [compound 7]
- increase in MDA formation in microsomes [2]: 29%
- IC50 (SH-SY5Y cells [3]): > 500 µM
- preserved GSH levels in synaptosomes [1]: 70%
- viability at 100 µM [1]: 73%
- decrease of MDA production in microsomes [4]: 38%

Compound: CCOC(=O)c1cc(-c2ccc(Br)cc2)n(C(Cc2c[nH]c3ccccc23)C(=O)N/N=C/c2ccc(NC(C)=O)cc2)c1C (centres unmarked) [compound 9]
- increase in MDA formation in microsomes [2]: 38%
- IC50 (SH-SY5Y cells [3]): > 500 µM
- preserved GSH levels in synaptosomes [1]: 60%
- viability at 100 µM [1]: 78%
- decrease of MDA production in microsomes [4]: 26%
- protective effect (neuroprotection) (SH-SY5Y cells [5]; 5 µM pre-treatment 1.5 h): 47%
- protective effect (neuroprotection) (SH-SY5Y cells [5]; 10 µM pre-treatment 1.5 h): 52%
